Assays:
CYP2D6 = CYP2D6 (Homo sapiens, UniProt P10635); assay: metabolism by CYP2D6 isoform; type: in vitro ADME
Procedure: (§1) At five time points over the course of a 45 minute experiment, the compounds were analyzed by LC-MS/MS. The percentage of each compound remaining at each time point, along with the metabolic half-lives of each compound in the presence of each cytochrome P450 isoform, are indicated in Tables 10-12, below.

CYP2C19 = CYP2C19 (Homo sapiens, UniProt P33261); assay: metabolism by CYP2C19 isoform; type: in vitro ADME
CYP2C19, sequence (P33261 whole entry, canonical isoform): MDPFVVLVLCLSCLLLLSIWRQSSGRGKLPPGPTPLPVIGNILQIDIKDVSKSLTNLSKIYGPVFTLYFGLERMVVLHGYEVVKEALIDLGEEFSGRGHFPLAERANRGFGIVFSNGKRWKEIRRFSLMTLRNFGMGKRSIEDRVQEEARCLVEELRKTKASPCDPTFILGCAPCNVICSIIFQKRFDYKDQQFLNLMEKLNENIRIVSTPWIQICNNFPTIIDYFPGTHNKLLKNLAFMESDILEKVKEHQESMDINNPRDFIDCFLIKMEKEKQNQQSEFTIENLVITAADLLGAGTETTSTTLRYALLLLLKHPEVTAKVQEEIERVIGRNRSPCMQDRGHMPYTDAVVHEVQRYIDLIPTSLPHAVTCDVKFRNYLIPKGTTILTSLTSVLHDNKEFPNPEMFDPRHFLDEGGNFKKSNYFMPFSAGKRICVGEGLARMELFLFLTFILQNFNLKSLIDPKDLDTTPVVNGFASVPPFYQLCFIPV
Procedure: as §1

[1] = system: healthy female volunteers; assay: uterine contractions and endometrial blood flow in clinical trial of Example 4; type: in vivo, human; settings: single oral dose of 900 mg or 1,800 mg
Procedure: (§2) Particularly, subjects were pre-treated with estradiol valerate at a dosage of 2 mg administered 3 times per day (TID) for 16 days. Administration of estradiol valerate was followed by vaginal progesterone at a dosage of 200 mg administered TID.
These assessments included measurements of uterine contractions by ultrasound and uterine perfusion by a 3D-power Doppler technique.
Mean and median changes in uterine contraction frequency and endometrial vascularity indices (particularly, endometrial flow index (FI), vascularity index (VI), and vascularity flow index (VFI)) were calculated. […] Differences in endometrial mRNA expression were identified and assessed for statistical significance.

[2] = system: spontaneous uterine contractions; settings: same vehicle, same model organism; cited from earlier work
CYP3A4 = CYP3A4 (Homo sapiens, UniProt P08684); assay: metabolism by CYP3A4 isoform; type: in vitro ADME
CYP3A4, sequence (P08684 whole entry, canonical isoform): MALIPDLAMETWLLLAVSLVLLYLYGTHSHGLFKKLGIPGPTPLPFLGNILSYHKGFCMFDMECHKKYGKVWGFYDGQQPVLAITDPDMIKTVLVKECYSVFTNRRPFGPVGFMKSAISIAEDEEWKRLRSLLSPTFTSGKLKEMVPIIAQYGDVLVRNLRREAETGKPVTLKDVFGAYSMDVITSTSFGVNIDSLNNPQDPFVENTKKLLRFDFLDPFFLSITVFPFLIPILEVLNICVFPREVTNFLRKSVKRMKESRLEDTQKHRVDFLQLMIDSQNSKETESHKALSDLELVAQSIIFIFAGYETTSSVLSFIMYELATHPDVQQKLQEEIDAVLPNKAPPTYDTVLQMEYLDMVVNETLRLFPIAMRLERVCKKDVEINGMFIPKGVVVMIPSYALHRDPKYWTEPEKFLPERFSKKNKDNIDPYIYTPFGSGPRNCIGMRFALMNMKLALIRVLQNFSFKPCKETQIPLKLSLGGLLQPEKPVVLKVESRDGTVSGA
Procedure: as §1

[3] = system: endometrial RNA transcript expression (DPP4, CNTNAP3, CNTN4, CXCL12, TNXB, CTSE, OLFM4, KRT5, KRT6A, IDO2); assay: RNA-Seq assay of endometrial tissue mRNA expression before and after administration; type: in vivo, human
Procedure: Using an RNA-Seq assay, each subject's mRNA expression level of a variety of genes, including DPP4, CNTNAP3, CNTN4, CXCL12, TNXB, CTSE, OLFM4, KRT5, KRT6A, and IDO2, was then assessed to determine whether the expression of each gene increased, decreased, or underwent no significant change due to administration of the compound or placebo.

[4] = crystal form with XRPD peaks of Table 1; cited from earlier work
[5] = dispersible tablet formulations; cited from earlier work
endometrial perfusion = assay: Endometrial perfusion parameters (VI, FI, VFI) after single dose; type: in vivo, human; settings: for increase in median endometrial VFI: between pre-dose and 24-hour post-dose
uterine contractions = assay: Uterine contractions after single dose versus placebo; type: in vivo, human
[6] = plasma concentration of compound (II) in clinical trial of Example 4; type: in vivo, human; settings: oral administration of either the 900 mg or the 1,800 mg dose
Procedure: as §2

[7] = 1,800 mg dose, within 24 hours of administration

CYP2D6, sequence (P10635 whole entry, canonical isoform): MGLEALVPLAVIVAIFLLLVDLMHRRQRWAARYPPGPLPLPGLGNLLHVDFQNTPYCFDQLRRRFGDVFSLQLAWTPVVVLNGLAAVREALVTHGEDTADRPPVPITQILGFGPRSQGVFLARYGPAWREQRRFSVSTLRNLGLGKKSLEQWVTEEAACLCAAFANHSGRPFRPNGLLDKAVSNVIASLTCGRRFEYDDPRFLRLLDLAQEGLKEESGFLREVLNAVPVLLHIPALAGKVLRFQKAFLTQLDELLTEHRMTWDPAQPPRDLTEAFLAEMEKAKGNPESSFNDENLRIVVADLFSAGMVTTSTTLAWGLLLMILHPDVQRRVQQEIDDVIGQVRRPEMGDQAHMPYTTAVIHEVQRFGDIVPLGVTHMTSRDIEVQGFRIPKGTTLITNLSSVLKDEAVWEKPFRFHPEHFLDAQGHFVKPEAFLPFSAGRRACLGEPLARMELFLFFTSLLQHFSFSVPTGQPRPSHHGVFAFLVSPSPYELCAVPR

SMILES: CO/N=C1\C[C@@H](CO)N(C(=O)c2ccc(-c3ccccc3C)cc2)C1 [(3E) isomer, (3E,5S)-5-(hydroxymethyl)-1-[(2′-methyl-1,1′-biphenyl-4-yl)carbonyl]pyrrolidin-3-one O-methyloxime]
- preferential metabolism by cytochrome P450 isoform (CYP2D6): preferentially metabolized by the CYP2D6 and CYP2C19 isoforms of cytochrome P450
- preferential metabolism by cytochrome P450 isoform (CYP2C19): preferentially metabolized by the CYP2D6 and CYP2C19 isoforms of cytochrome P450

SMILES: CO/N=C1/C[C@@H](CO)N(C(=O)c2ccc(-c3ccccc3C)cc2)C1 [Compound (II), (3Z,5S)-5-(hydroxymethyl)-1-[(2′-methyl-1,1′-biphenyl-4-yl)carbonyl]pyrrolidin-3-one O-methyloxime]
- effect on uterine contractions ([1]; FIG. 7): decrease uterine contractions
- effect on endometrial blood flow (FI, VI, VFI) ([1]; FIGS. 8-10): marked and sustained increase in endometrial blood flow
- inhibitory activity with respect to uterine contraction, compared with (3E) diastereomer [2]: markedly higher than that of the substantially pure (3E) diastereomer
- preferential metabolism by cytochrome P450 isoform (CYP3A4): preferentially metabolized by the CYP3A4 isoform of cytochrome P450
- differences in mRNA expression in endometrial biopsy tissue compared to placebo ([3]; 900 mg dose): No differences
- number of mRNAs downregulated [3, 7]: 5
- number of mRNAs upregulated [3, 7]: 5
- number of mRNAs significantly differentially expressed ([3]; 1,800 mg dose, within 24 hours of administration, adjusted p<0.05): 10
- stability of crystal form [4]: enhanced stability to aqueous media and physical stress
- absorption kinetics upon administration to a subject [5]: rapid absorption kinetics
- Endometrial Fl (endometrial perfusion; 900 mg dose, 24-hour time point (p=0.0502)): significant increases
- increase in median endometrial VFI (endometrial perfusion; 900 mg dose): approximately 3 fold
- endometrial VI versus placebo (endometrial perfusion; 1,800 mg dose, 8-hour time point (p=0.0714)): substantial increase
- Endometrial Fl (endometrial perfusion; 1,800 mg dose, 24-hour time point (p=0.0625)): significant increases
- increase in median endometrial VFI (endometrial perfusion; 1,800 mg dose): approximately 3 fold
- proportion of subjects showing less than one uterine contraction per minute versus placebo (uterine contractions; 900 mg dose, 24-hour time point only (p=0.0437)): significant difference
- number of uterine contractions per minute versus placebo (uterine contractions; 900 mg dose, all time points (p>0.10)): no significant difference
- proportion of subjects showing less than one uterine contraction per minute versus placebo (uterine contractions; 1,800 mg dose, 8-hour time point (p=0.0121)): significance was seen
- number of uterine contractions per minute versus placebo (uterine contractions; 1,800 mg dose, from the 4-hour time point onwards (p=0.0923 at 4 h, p=0.0081 at 8 h)): contraction-reducing effects were observed
- time to maximum concentration [6]: about 4 hours
